Assay results from patent US10414811B2, “Protease-resistant lipidated GLP-1 analogs” (MEDIMMUNE LIMITED, priority 2015, dated 2019).
pEC50: −log10 of the molar value. Read-outs that look alike come from different tables or passages of the source. Numbered stars: 1 amine (or outer) side, 2 acyl side, 3 side chain; on linkers, the order of the positions; unused ones are H or OH. Square brackets hold non-standard residues; d marks the D form. Side chains are listed from the residue outwards. Peptide text beside a SMILES is read from it. * marks the point of attachment. γGlu = O=C(O)[C@H](CCC(=O)[*:2])N[*:1]; αMeF = C[C@](N)(Cc1ccccc1)C(=O)O; αMeK = C[C@](N)(CCCCN)C(=O)O; Lauroyl = CCCCCCCCCCCC(=O)*; αMeS = C[C@](N)(CO)C(=O)O; AEEA = NCCOCCOCC(=O)O; Aib = CC(C)(N)C(=O)O

Key:
Type in all cases: cell-based
[1] = target: T1, human GLP-1 receptor (GLP-1R) (Homo sapiens, UniProt P43220); experiment: cAMP assay, human GLP-1R cells; details: for EC50: mean of n1 and n2
T1 construct: expressed in transfected cells
T1 sequence (P43220 24-463): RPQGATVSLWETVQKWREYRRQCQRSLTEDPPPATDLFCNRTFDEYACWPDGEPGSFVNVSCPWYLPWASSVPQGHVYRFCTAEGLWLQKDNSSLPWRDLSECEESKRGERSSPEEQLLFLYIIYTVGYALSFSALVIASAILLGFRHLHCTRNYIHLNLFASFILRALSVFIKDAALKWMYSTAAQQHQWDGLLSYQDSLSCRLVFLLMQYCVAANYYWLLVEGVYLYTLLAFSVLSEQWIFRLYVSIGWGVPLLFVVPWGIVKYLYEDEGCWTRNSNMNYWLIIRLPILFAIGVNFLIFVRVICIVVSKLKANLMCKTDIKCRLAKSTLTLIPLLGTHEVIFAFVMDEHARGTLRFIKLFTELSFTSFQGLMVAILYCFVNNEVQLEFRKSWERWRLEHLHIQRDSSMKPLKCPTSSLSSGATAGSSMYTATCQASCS
Summary of the method: (§1)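 Peptide-stimulated cAMP measured by two-step HTRF after a 30 min room-temperature incubation with receptor-expressing cells (hGLP-1R, hGIPR at 1×10^5 cells/ml; hGCGR at 2×10^5 cells/ml). Duplicate dilutions; EC50 from 4-parameter logistic fit of % Delta F.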

[2] = target: T2, human glucagon receptor (GCGR) (Homo sapiens, UniProt P47871); experiment: cAMP assay, human GCGR cells
T2 construct: expressed in transfected cells
T2 sequence (P47871 26-477): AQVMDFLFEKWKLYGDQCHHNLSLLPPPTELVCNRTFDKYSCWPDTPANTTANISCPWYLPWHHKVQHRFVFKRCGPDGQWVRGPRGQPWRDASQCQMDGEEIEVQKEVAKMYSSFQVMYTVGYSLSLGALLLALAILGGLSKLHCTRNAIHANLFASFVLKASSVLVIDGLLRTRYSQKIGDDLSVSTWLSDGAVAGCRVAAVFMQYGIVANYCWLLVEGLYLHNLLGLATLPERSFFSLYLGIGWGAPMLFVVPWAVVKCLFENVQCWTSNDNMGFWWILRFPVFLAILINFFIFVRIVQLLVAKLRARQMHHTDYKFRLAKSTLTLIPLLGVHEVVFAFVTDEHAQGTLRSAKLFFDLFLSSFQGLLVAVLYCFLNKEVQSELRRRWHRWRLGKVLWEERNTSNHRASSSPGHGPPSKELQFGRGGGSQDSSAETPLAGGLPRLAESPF
Summary of the method: as §1

[3] = target: T3, human glucose-dependent insulinotropic peptide receptor (GIPR) (Homo sapiens, UniProt P48546); experiment: cAMP assay, human GIPR cells
T3 construct: expressed in transfected cells
T3 sequence (P48546 22-466): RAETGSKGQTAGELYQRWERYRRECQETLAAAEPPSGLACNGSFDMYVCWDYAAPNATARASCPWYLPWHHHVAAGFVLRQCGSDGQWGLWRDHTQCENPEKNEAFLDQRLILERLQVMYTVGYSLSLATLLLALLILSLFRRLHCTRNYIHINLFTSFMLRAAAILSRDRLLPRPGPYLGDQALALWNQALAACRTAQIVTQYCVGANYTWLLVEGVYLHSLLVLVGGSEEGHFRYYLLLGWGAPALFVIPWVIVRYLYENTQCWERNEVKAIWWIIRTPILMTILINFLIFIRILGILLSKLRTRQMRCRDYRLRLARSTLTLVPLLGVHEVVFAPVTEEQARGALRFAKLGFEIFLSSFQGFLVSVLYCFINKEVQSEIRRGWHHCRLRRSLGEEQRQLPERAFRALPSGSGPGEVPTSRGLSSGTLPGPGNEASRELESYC
Summary of the method: as §1

[4] = cAMP assay, first determination (n1), read-out: Primary assay EC50 GLP-1R n1
[5] = cAMP assay, second determination (n2), read-out: Primary assay EC50 GLP-1R n2
[6] = cAMP assay, first determination (n1), read-out: Primary assay EC50 Gluc-R (n1)
[7] = cAMP assay, second determination (n2), read-out: Primary assay EC50 Gluc-R (n2)
[8] = cAMP assay, first determination (n1), read-out: Primary assay EC50 GIP-R (n1)
[9] = cAMP assay, second determination (n2), read-out: Primary assay EC50 GIP-R (n2)
[10] = tris-lipidated peptides, read-out: Primary assay EC50 Mean pM GLP-1R
[11] = tris-lipidated peptides, replicate n1, read-out: Primary assay EC50 GLP-1R n1
[12] = tris-lipidated peptides, replicate n2, read-out: Primary assay EC50 GLP-1R n2
[13] = tris-lipidated peptides, first replicate, read-out: Primary assay EC50 GIP-R (n1)

pEC50 [1, 4] | pEC50 [1, 5] | EC50 ([1]; read-out: Mean pM GLP-1R) [pM] | pEC50 [2, 6] | pEC50 [2, 7] | pEC50 [3, 8] | pEC50 [3, 9] | EC50 [1, 10] [pM] | pEC50 [1, 11] | pEC50 [1, 12] | pEC50 ([2]; tris-lipidated peptides, second replicate, read-out: Primary assay EC50 Gluc-R (n2)) | pEC50 [3, 13] | pEC50 ([2]; tris-lipidated peptides, first replicate, read-out: Primary assay EC50 Gluc-R (n1)) | Structure (SMILES) | pEC50 ([2]; Primary assay EC50 Gluc-R (n1), cAMP assay, first determination (n1)) | pEC50 ([2]; read-out: Primary assay EC50 Gluc-R (n2), cAMP assay, second determination (n2)) | pEC50 ([3]; Primary assay EC50 GIP-R (n1), cAMP assay, first determination (n1)) | pEC50 ([3]; read-out: Primary assay EC50 GIP-R (n2), cAMP assay, second determination (n2))
9.89 | 10.30 | 87.5 | ≤ 7.57 | ≤ 7.57 | ≤ 7.57 | ≤ 7.57 |  |  |  |  |  |  | CCCCCCCCCCCCCCCCCC(=O)NCCCCCC(=O)NCCCCCC(=O)NCCCC[C@H](NC(=O)[C@@H](NC(=O)[C@@H](NC(=O)[C@](C)(Cc1ccccc1)NC(=O)[C@H](C)NC(=O)[C@@H](NC(=O)[C@](C)(Cc1ccccc1)NC(=O)[C@H](CCC(=O)O)NC(=O)[C@](C)(CCCCN)NC(=O)[C@H](C)NC(=O)[C@H](C)NC(=O)[C@H](CCC(=O)O)NC(=O)CNC(=O)[C@H](CCC(=O)O)NC(=O)[C@H](CC(C)C)NC(=O)[C@](C)(Cc1ccccc1)NC(=O)[C@H](CO)NC(=O)[C@](C)(CO)NC(=O)[C@@H](NC(=O)[C@H](CC(=O)O)NC(=O)[C@H](CO)NC(=O)[C@@H](NC(=O)[C@](C)(Cc1ccccc1)NC(=O)[C@H](CO)NC(=O)CNC(=O)[C@H](CCC(=O)O)NC(=O)C(C)(C)NC(=O)[C@@H](N)Cc1c[nH]cn1)[C@@H](C)O)C(C)C)[C@@H](C)CC)C(C)C)C(C)C)C(=O)NCC(=O)NCC(N)=O [compound 186] |  |  |  | 
 |  |  |  |  |  |  | 82 | 10.22 | 9.99 | 7.71 | 7.71 |  | CCCCCCCCCCCC(=O)N[C@@H](CCC(=O)NCCOCCOCC(=O)NCCOCCOCC(=O)NCCCC[C@H](NC(=O)[C@H](CC(=O)O)NC(=O)[C@H](CO)NC(=O)[C@@H](NC(=O)[C@](C)(Cc1ccccc1)NC(=O)[C@H](CO)NC(=O)CNC(=O)[C@H](CCC(=O)O)NC(=O)C(C)(C)NC(=O)[C@@H](N)Cc1c[nH]cn1)[C@@H](C)O)C(=O)N[C@@H](CO)C(=O)N[C@@H](CO)C(=O)N[C@@H](Cc1ccc(O)cc1)C(=O)N[C@@H](CC(C)C)C(=O)N[C@@H](CCC(=O)O)C(=O)NCC(=O)N[C@@H](CCC(=O)O)C(=O)N[C@@H](C)C(=O)N[C@@H](C)C(=O)N[C@@](C)(CCCCN)C(=O)N[C@@H](CCCCNC(=O)COCCOCCNC(=O)COCCOCCNC(=O)CC[C@H](NC(=O)CCCCCCCCCCC)C(=O)O)C(=O)N[C@@H](Cc1ccccc1)C(=O)N[C@H](C(=O)N[C@@H](CCCCNC(=O)COCCOCCNC(=O)COCCOCCNC(=O)CC[C@H](NC(=O)CCCCCCCCCCC)C(=O)O)C(=O)N[C@@H](Cc1ccccc1)C(=O)N[C@H](C(=O)N[C@H](C(=O)N[C@@H](CCC(=O)O)C(=O)NCC(=O)NCC(N)=O)C(C)C)C(C)C)[C@@H](C)CC)C(=O)O [compound 442] (H-H[Aib]EGS[αMeF]TSDK([AEEA-AEEA-γGlu-Lauroyl])SSYLEGEAA[αMeK]K([AEEA-AEEA-γGlu-Lauroyl])FIK([AEEA-AEEA-γGlu-Lauroyl])FVVEGG-NH2; N-terminus assumed) |  |  |  | 
 |  |  |  |  |  |  | 244 | 9.64 | 9.59 |  | ≤ 7.71 | ≤ 7.71 | CCCCCCCCCCCC(=O)N[C@@H](CCC(=O)NCCOCCOCC(=O)NCCOCCOCC(=O)NCCCC[C@H](NC(=O)[C@H](CCC(=O)O)NC(=O)[C@H](CCCCNC(=O)COCCOCCNC(=O)COCCOCCNC(=O)CC[C@H](NC(=O)CCCCCCCCCCC)C(=O)O)NC(=O)[C@H](Cc1ccc(O)cc1)NC(=O)[C@H](CO)NC(=O)[C@](C)(CO)NC(=O)[C@@H](NC(=O)[C@H](CC(=O)O)NC(=O)[C@H](CO)NC(=O)[C@@H](NC(=O)[C@](C)(Cc1ccccc1)NC(=O)[C@H](CO)NC(=O)CNC(=O)[C@H](CCC(=O)O)NC(=O)C(C)(C)NC(=O)[C@@H](N)Cc1c[nH]cn1)[C@@H](C)O)C(C)C)C(=O)N[C@@H](CCC(=O)O)C(=O)N[C@@H](C)C(=O)N[C@@H](C)C(=O)N[C@@](C)(CCCCN)C(=O)N[C@@H](CCC(=O)O)C(=O)N[C@@H](Cc1ccccc1)C(=O)N[C@H](C(=O)N[C@@H](C)C(=O)N[C@@H](Cc1ccccc1)C(=O)N[C@@H](CCCCNC(=O)COCCOCCNC(=O)COCCOCCNC(=O)CC[C@H](NC(=O)CCCCCCCCCCC)C(=O)O)C(=O)N[C@H](C(=O)N[C@@H](CCC(=O)O)C(=O)NCC(=O)NCC(N)=O)C(C)C)[C@@H](C)CC)C(=O)O [compound 483] (H-H[Aib]EGS[αMeF]TSDV[αMeS]SYK([AEEA-AEEA-γGlu-Lauroyl])EK([AEEA-AEEA-γGlu-Lauroyl])EAA[αMeK]EFIAFK([AEEA-AEEA-γGlu-Lauroyl])VEGG-NH2; N-terminus assumed) |  |  |  | 

Second part, the molecule before the results:

Structure (SMILES) | pEC50 [1, 4] | pEC50 [1, 5] | EC50 ([1]; read-out: Mean pM GLP-1R) [pM] | pEC50 [2, 6] | pEC50 [2, 7] | pEC50 [3, 8] | pEC50 [3, 9] | EC50 [1, 10] [pM] | pEC50 [1, 11] | pEC50 [1, 12] | pEC50 ([2]; tris-lipidated peptides, second replicate, read-out: Primary assay EC50 Gluc-R (n2)) | pEC50 [3, 13] | pEC50 ([2]; tris-lipidated peptides, first replicate, read-out: Primary assay EC50 Gluc-R (n1)) | pEC50 ([2]; Primary assay EC50 Gluc-R (n1), cAMP assay, first determination (n1)) | pEC50 ([2]; read-out: Primary assay EC50 Gluc-R (n2), cAMP assay, second determination (n2)) | pEC50 ([3]; Primary assay EC50 GIP-R (n1), cAMP assay, first determination (n1)) | pEC50 ([3]; read-out: Primary assay EC50 GIP-R (n2), cAMP assay, second determination (n2))
CCCCCCCCCCCCCCCCCC(=O)N[C@@H](CCC(=O)NCCCC[C@H](NC(=O)[C@@H](NC(=O)[C@@H](NC(=O)[C@](C)(Cc1ccccc1)NC(=O)[C@H](C)NC(=O)[C@@H](NC(=O)[C@](C)(Cc1ccccc1)NC(=O)[C@H](CCC(=O)O)NC(=O)[C@](C)(CCCCN)NC(=O)[C@H](C)NC(=O)[C@H](C)NC(=O)[C@H](CCC(=O)O)NC(=O)CNC(=O)[C@H](CCC(=O)O)NC(=O)[C@H](CC(C)C)NC(=O)[C@](C)(Cc1ccccc1)NC(=O)[C@H](CO)NC(=O)[C@](C)(CO)NC(=O)[C@@H](NC(=O)[C@H](CC(=O)O)NC(=O)[C@H](CO)NC(=O)[C@@H](NC(=O)[C@](C)(Cc1ccccc1)NC(=O)[C@H](CO)NC(=O)CNC(=O)[C@H](CCC(=O)O)NC(=O)C(C)(C)NC(=O)[C@@H](N)Cc1c[nH]cn1)[C@@H](C)O)C(C)C)[C@@H](C)CC)C(C)C)C(C)C)C(=O)NCC(=O)NCC(N)=O)C(=O)O [compound 182] | 9.89 | 10.28 | 89.9 | ≤ 7.55 | ≤ 7.55 | ≤ 7.55 | ≤ 7.55 |  |  |  |  |  |  |  |  |  | 
CCCCCCCCCCCC(=O)NCCCCCC(=O)NCCCC[C@H](NC(=O)[C@@H](NC(=O)[C@@H](NC(=O)[C@](C)(Cc1ccccc1)NC(=O)[C@H](C)NC(=O)[C@@H](NC(=O)[C@](C)(Cc1ccccc1)NC(=O)[C@H](CCC(=O)O)NC(=O)[C@](C)(CCCCN)NC(=O)[C@H](C)NC(=O)[C@H](C)NC(=O)[C@H](CCC(=O)O)NC(=O)CNC(=O)[C@H](CCC(=O)O)NC(=O)[C@H](CC(C)C)NC(=O)[C@](C)(Cc1ccccc1)NC(=O)[C@H](CO)NC(=O)[C@](C)(CO)NC(=O)[C@@H](NC(=O)[C@H](CC(=O)O)NC(=O)[C@H](CO)NC(=O)[C@@H](NC(=O)[C@](C)(Cc1ccccc1)NC(=O)[C@H](CO)NC(=O)CNC(=O)[C@H](CCC(=O)O)NC(=O)C(C)(C)NC(=O)[C@@H](N)Cc1c[nH]cn1)[C@@H](C)O)C(C)C)[C@@H](C)CC)C(C)C)C(C)C)C(=O)NCC(=O)NCC(N)=O [compound 167] | 10.89 | 11.16 | 10 | ≤ 7.54 | ≤ 7.54 | ≤ 7.54 | ≤ 7.54 |  |  |  |  |  |  |  |  |  | 
CC[C@H](C)[C@H](NC(=O)[C@](C)(Cc1ccccc1)NC(=O)[C@H](CCC(=O)O)NC(=O)[C@H](CCCCNC(=O)COCCOCCNC(=O)COCCOCCNC(=O)COCCOCCNC(=O)CCCCCCCCCCCOc1ccc(C(=O)O)cc1)NC(=O)[C@H](C)NC(=O)[C@H](C)NC(=O)[C@H](CCC(=O)O)NC(=O)CNC(=O)[C@H](CCC(=O)O)NC(=O)[C@H](CC(C)C)NC(=O)[C@](C)(Cc1ccccc1)NC(=O)[C@H](CO)NC(=O)[C@](C)(CO)NC(=O)[C@@H](NC(=O)[C@H](CC(=O)O)NC(=O)[C@H](CO)NC(=O)[C@@H](NC(=O)[C@](C)(Cc1ccccc1)NC(=O)[C@H](CO)NC(=O)CNC(=O)[C@H](CCC(=O)O)NC(=O)C(C)(C)NC(=O)[C@@H](N)Cc1c[nH]cn1)[C@@H](C)O)C(C)C)C(=O)N[C@@H](C)C(=O)N[C@@](C)(Cc1ccccc1)C(=O)N[C@H](C(=O)N[C@H](C(=O)N[C@@](C)(CCCCN)C(=O)NCC(=O)NCC(N)=O)C(C)C)C(C)C [compound 145] | 10.57 | 10.82 | 21 |  |  |  |  |  |  |  |  |  |  | ≤ 7.60 | ≤ 7.60 | ≤ 7.60 | ≤ 7.60
